Results published in patent publication US12151010B2, “Skin lightening agent” (POLA CHEMICAL INDUSTRIES, INC., priority 2018, dated 2024).

Tested on: pigmentation of UV-irradiated test sites on the medial upper arms of panelists
Assay: Test of skin whitening effect (pigmentation ameliorating effect), skin lightness L* by color difference meter after UV irradiation
Assay type: in vivo, human (panelists)
Conditions: for Pigmentation amelioration Rating: 25-day application; for Pigmentation amelioration ΔL*: 50 μL twice a day for 25 days after 3x 1 MED UV, L* minus Comparative Example site
Description: The cosmetics according to Table 1 (Examples 1 to 9, Comparative Example, and Reference Example) were prepared respectively in a conventional manner. With regard to each of the prepared cosmetics, the skin whitening effect (pigmentation ameliorating effect) was evaluated by the following method. That is, total 8 test sites in a size of 0.5 cm×0.5 cm were established on the medial parts of the left and right upper arms of each of 10 panelists who participated voluntarily. Each established site was irradiated with a minimum erythema dose (1 MED) of UV light once a day for three consecutive days, namely totally three times. At the end of the UV irradiation on the first day of the test (at the end of the first irradiation) and thereafter each 50 μL of the cosmetics of Comparative Example and any one of Examples 1 to 9 or Reference Example were applied respectively to one site and the remaining seven sites twice a day for 25 consecutive days. The skin lightness (L* value) of each test site was measured 24 hours after the end of the 25-day application period with a color difference meter (CR-300, Konica Minolta Holdings, Inc.). By subtracting the L* value of the site to which the cosmetic of Comparative Example was applied from each L* value of the sites to which the cosmetic of Example or Reference Example was applied, the difference in skin lightness (ΔL* value) was calculated. Since the L* value decreases, as the degree of pigmentation becomes severer, it may be so judged that pigmentation is ameliorated, when the ΔL* value is higher.

[1] = content 1% by mass in Table 1 cosmetic
[2] = content 0.01% by mass in Table 1 cosmetic
[3] = content 3% by mass in Table 1 cosmetic

## CCCCCC(=O)OCC(C)Cc1ccc(C(=O)C2CCC(CN)CC2)cc1 (centres unmarked) [Compound 5, 2-methyl-3-[p-(4-aminomethylcyclohexylcarbonyl)phenyl]propyl hexanoate]
[1]
  Pigmentation amelioration Rating: A (0.4 < ΔL* < 0.5)
  Pigmentation amelioration ΔL*: 0.42

## CCCCCCOC(=O)CCc1ccc(C(=O)C2CCC(CN)CC2)cc1 (centres unmarked) [Compound 2, 3-[p-(4-aminomethylcyclohexylcarbonyl)phenyl]propionate hexyl]
[1]
  Pigmentation amelioration Rating: A (0.4 < ΔL* < 0.5)
  Pigmentation amelioration ΔL*: 0.43

## NCC1CCC(C(=O)c2ccc(CCCO)cc2)CC1 (centres unmarked) [Compound 3, 3-[p-(4-aminomethylcyclohexylcarbonyl)phenyl]propanol]
[2]
  Pigmentation amelioration Rating: A (0.4 < ΔL* < 0.5)
  Pigmentation amelioration ΔL*: 0.45
[1]
  Pigmentation amelioration Rating: A (0.4 < ΔL* < 0.5)
  Pigmentation amelioration ΔL*: 0.48

## NC[C@H]1CC[C@H](C(=O)O)CC1 [Tranexamic acid, reference compound]
[1]
  Pigmentation amelioration Rating: B (ΔL* ≤ 0.4)
  Pigmentation amelioration ΔL*: 0.40

## NCC1CCC(C(=O)c2ccc(CCC(=O)O)cc2)CC1 (centres unmarked) [Compound 1, 3-[p-(4-aminomethylcyclohexylcarbonyl)phenyl]propionic acid]
[2]
  Pigmentation amelioration Rating: A (0.4 < ΔL* < 0.5)
  Pigmentation amelioration ΔL*: 0.47
[1]
  Pigmentation amelioration Rating: AA (ΔL* ≥ 0.5%)
  Pigmentation amelioration ΔL*: 0.50
[3]
  Pigmentation amelioration Rating: AA (ΔL* ≥ 0.5%)
  Pigmentation amelioration ΔL*: 0.52

## Cl.NCC1CCC(C(=O)c2ccc(CCC(=O)O)cc2)CC1 (centres unmarked) [Hydrochloride of Compound 1]
[1]
  Pigmentation amelioration Rating: AA (ΔL* ≥ 0.5%)
  Pigmentation amelioration ΔL*: 0.52

## CCCCCC(=O)OCCCc1ccc(C(=O)C2CCC(CN)CC2)cc1 (centres unmarked) [Compound 4, 3-[p-(4-aminomethylcyclohexylcarbonyl)phenyl]propyl hexanoate]
[1]
  Pigmentation amelioration Rating: A (0.4 < ΔL* < 0.5)
  Pigmentation amelioration ΔL*: 0.45
